pEC50: −log10 of the molar value.
Experiments:
[1] = system: human eosinophils; test: Eosinophil shape change in human PMNL by flow cytometry (GAFS assay); type: cell-based
Protocol: PMNL were prepared as described above and cells were resuspended in assay buffer (PBS containing 10 mM Ca^2+ and Mg^2+, 10 mM HEPES, 10 mM glucose, and 0.1% BSA, pH 7.2-7.4). Aliquots of cells (5×10^5 PMNL in 80 μl assay buffer) were pretreated with histamine receptor analogues (diphenhydramine, ranitidine, thioperamide, Compound A or H3 receptor antagonist) for 10 min at room temperature before addition of histamine or chemokines in 1.2-ml polypropylene cluster tubes (Costar, Cambridge, Mass.) in a final volume of 100 μl. The tubes were placed in a 37° C. water bath for 10 min (or as indicated), after which they were transferred to an ice-water bath, and 250 μl of ice-cold fixative (2% paraformaldehyde in PBS) was added to terminate the reaction and to maintain the cell shape change. […] Cell shape change was monitored in forward scatter signals. To identify eosinophils and neutrophils in PMNL, cells were stained on ice for 30 min with saturating concentrations of FITC-conjugated anti-CCR3 or anti-CD16 antibodies, which are specific for eosinophils or neutrophils, respectively. Samples after antibody staining were analyzed in flow cytometry.

[2] = system: human eosinophils; test: Cell surface expression of adhesion molecules on eosinophils by flow cytometry; type: cell-based
Protocol: Purified eosinophils were used to study cell surface expression of adhesion molecules. Eosinophils were resuspended in PBS containing 10 mM Ca^2+ and Mg^2+, 10 mM HEPES, 10 mM glucose, and 0.1% BSA, pH 7.2-7.4. Aliquots of cells (5×10^5 PMNL) were pretreated with histamine receptor analogues (as described above) for 10 min before addition of histamine or chemokines in 1.2-ml polypropylene cluster tubes (Costar, Cambridge, Mass.) in a final volume of 100 μl. The tubes were placed in a 37° C. water bath for 10 min (or as indicated), after which they were transferred to an ice-water bath, and 250 μl of ice-cold fixative (0.5% paraformaldehyde in PBS) was added. Samples were then incubated on ice for 30 min with saturating concentration of either FITC or phycoerytherine-conjugated anti-CD11a, anti-CD11b or anti-CD54 antibodies, washed, and then analyzed by flow cytometry.

[3] = system: purified human eosinophils; test: In vitro eosinophil chemotaxis assay (Transwell); type: cell-based
Protocol: Transwells (Costar, Cambridge, Mass.) with 5 μm pore size were coated with 100 μl of 100 ng/ml human fibronectin (Sigma) for 2 h at room temperature. After removal of excess fibronectin, 600 μl of RPMI-1640 medium containing 0.5% BSA and different concentrations of histamine (0.01-100 μM) was added to the bottom chamber, Eosinophils (2×10^5/well) were added to the top chamber. Histamine receptor analogues (diphenhydramine, ranitidine, thioperamide, Compound A or Compound B) were added to both the top and bottom chambers to a final concentration of 10 μM or at other concentration as stated in figure legends. The plates were incubated for 2 h at 37° C. and the number of cells migrated to the bottom chamber was counted for 1 min using flow cytometer.

[4] = system: eosinophils in human whole blood; test: Whole blood eosinophil shape change GAFS assay (Example 1A); type: cell-based
Protocol: Starting materials were obtained as described in the experiments above. Human whole blood samples were used to study eosinophil shape change response. Human blood samples collected from healthy donors were treated with 3.8% tri-sodium citrate as anti-coagulator (or other anti-coagulators) and centrifuges at 300 rpm. The samples were used for experiments within 1 hour. Aliquots of 80 μl whole blood were pretreated with histamine receptor analogues (such as H1 receptor antagonist diphenhydramine, H2 antagonist ranitidine, H4 receptor antagonists thioperamide and Compound A, and H3 receptor antagonist Compound B) for 10 minutes before addition of histamine or chemokines in 1.2-ml polypropylene cluster tubes (Costar, Cambridge, Mass.) in a final volume of 100 μl. The tubes were placed in a 37° C. water bath for 10 min, after which they were transferred to an ice-water bath, and 250 μl of ice-cold fixative (2% paraformaldehyde in PBS or other fixatives) was added to terminate the reaction and to maintain the cell shape change. Red cells were lysed with 3 ml Qiagen lysis solution (Qiagen, Valencia, Calif.) for 10 minutes at 4° C. Leukocytes were recovered by centrifugation at 2000 rpm for 5 minutes, washed once with either PBS containing 10 mM Ca^2+ and Mg^2+, 10 mM HEPES, 10 mM glucose, and 0.1% BSA (for FIGS. 10 and 11) or PBS containing 0.5% BSA and 2 mM EDTA (for other figures), and then resuspended in the same buffer. The cell shape change was analyzed on a FACScan flow cytometer (Becton Dickinson, Mountain View, Calif.). Eosinophils were gated based on their high autofluorescence relative to neutrophils and shape change was monitored in forward scatter signals. Data were acquired for 1500 high-fluorescence eosinophil events. The results are expressed as the percentage increase in FSC compared to unstimulated cells. Results obtained are provided in the Tables I and II, below, which also correspond to FIG. 7 and FIG. 8, respectively.

[5] = system: human neutrophils; conditions: 1 μM, 10 min
Protocol: Human PMNL samples were used to study eosinophil shape change response. PMNL were prepared as described above and cells were resuspended in assay buffer (PBS containing 10 mM Ca^2+ and Mg^2+, 10 mM HEPES, 10 mM glucose, and 0.1% BSA, pH 7.2-7.4). Aliquots of cells (5×10^5 PMNL in 80 μl assay buffer) were pretreated with histamine receptor analogues (diphenhydramine, ranitidine, thioperamide, Compound A or H3 receptor antagonist) for 10 min at room temperature before addition of histamine or chemokines in 1.2-ml polypropylene cluster tubes (Costar, Cambridge, Mass.) in a final volume of 100 μl. […] The cell shape change was analyzed with the flow cytometer (Becton Dickinson, Mountain View, Calif.). […] Cell shape change was monitored in forward scatter signals. […] Samples after antibody staining were analyzed in flow cytometry.
The analysis of eosinophil cell shape change by flow cytometry, known as gated autofluorescence forward scatter (GAFS) assay, allows a quantitative measurement of cell shape change induced by chemoattractants (Sabroe et al., 1999, “Differential regulation of eosinophil chemokine signaling via CCR3 and non-CCR3 pathways,” J. Immunol., 162, 2946-2955). […]

[6] = cited from earlier work
[7] = after histamine treatment, FIG. 3A
[8] = histamine 0.1 uM alone, lower part
[9] = histamine 1 uM alone, lower part
[10] = histamine 10 uM alone, lower part

Question: For `NCCc1c[nH]cn1` [histamine, 4-(2-amino-ethyl)imidazole], which “cell shape change on eosinophils” value ([1]; 1 μM, 10 min) is on record?
Answer: significant cell shape change

Question: What about the “eosinophil shape change at 100 μM histamine” value ([1]; 100 μM) of the same molecule?
Answer: no shape change

Question: What about the “earliest time at which eosinophil shape change is detected” value [1, 7] of the same molecule?
Answer: 1 min

Question: What about the “time of maximal eosinophil shape change” value [1, 7] of the same molecule?
Answer: 5 min

Question: What about the “time of return to the original cell shape” value [1, 7] of the same molecule?
Answer: 40 min

Question: And the “combined effect on eosinophil shape change” value ([1]; histamine combined with MCP-3, sub-optimal concentrations)?
Answer: Partial additive effects

Question: And the “optimal concentration for maximal shape change on eosinophils” value ([1]; human PMNL, 10 min)?
Answer: ~1 µM

Question: What about the pEC50 ([1]; human PMNL, FIG. 3D) of the same molecule?
Answer: 7.36

Question: And the “expression of CD11a/CD18 (LFA-1) on eosinophils” value [2]?
Answer: not induced

Question: And the “optimal concentration for maximal up-regulation of CD11b/CD18 and CD54” value ([2]; 10-minute stimulation)?
Answer: 10 µM

Question: What about the “cell surface expression of CD11b/CD18 (Mac-1) and CD54 (ICAM-1) on eosinophils” value ([2]; 10 min, 37° C.) of the same molecule?
Answer: induced by histamine in a concentration-dependent manner

Question: What about the “persistence of the increase in cell surface adhesion molecules” value ([2]; 60 minutes incubation) of the same molecule?
Answer: maintained

Question: And the “effect on eosinophil chemotaxis induced by eotaxin-2 and MCP-3” value ([3]; 0.5 μM histamine)?
Answer: enhanced

Question: What about the pEC50 ([3]; Homo sapiens, Eosinophil, Transwell, 2 h) of the same molecule?
Answer: 7.08

Question: What about the “concentration for maximal chemotactic effect on eosinophils” value ([3]; Transwell) of the same molecule?
Answer: 1 µM

Question: What about the “nature of the effect on eosinophil migration” value ([3]; disruption of concentration gradient) of the same molecule?
Answer: chemotactic but not chemokinetic

Question: What about the “% change (increase in FSC compared to unstimulated cells)” value ([4]; histamine 0.01 uM, upper part) of the same molecule?
Answer: 6.1%

Question: And the “GeoMean (FSC of eosinophils)” value ([4]; histamine 0.01 uM, upper part)?
Answer: 239.8

Question: And the “% change (increase in FSC compared to unstimulated cells)” value [4, 8]?
Answer: 20.1%

Question: And the “GeoMean (FSC of eosinophils)” value [4, 8]?
Answer: 327.7

Question: What about the “% change (increase in FSC compared to unstimulated cells)” value ([4]; histamine 0.1 uM, upper part) of the same molecule?
Answer: 20.0%

Question: What about the “GeoMean (FSC of eosinophils)” value ([4]; histamine 0.1 uM, upper part) of the same molecule?
Answer: 271.3

Question: And the “% change (increase in FSC compared to unstimulated cells)” value [4, 9]?
Answer: 18.0%

Question: What about the “GeoMean (FSC of eosinophils)” value [4, 9] of the same molecule?
Answer: 321.9

Question: What about the “% change (increase in FSC compared to unstimulated cells)” value ([4]; histamine 1 uM, upper part) of the same molecule?
Answer: 16.4%

Question: And the “GeoMean (FSC of eosinophils)” value ([4]; histamine 1 uM, upper part)?
Answer: 263.3

Question: And the “% change (increase in FSC compared to unstimulated cells)” value [4, 10]?
Answer: 11.1%

Question: What about the “GeoMean (FSC of eosinophils)” value [4, 10] of the same molecule?
Answer: 303.3

Question: What about the “% change (increase in FSC compared to unstimulated cells)” value ([4]; histamine 10 uM, upper part) of the same molecule?
Answer: 17.2%

Question: And the “GeoMean (FSC of eosinophils)” value ([4]; histamine 10 uM, upper part)?
Answer: 265.0

Question: And the “% change (increase in FSC compared to unstimulated cells)” value ([4]; histamine 100 uM, upper part)?
Answer: 30.8%

Question: And the “GeoMean (FSC of eosinophils)” value ([4]; histamine 100 uM, upper part)?
Answer: 295.8

Question: And the “concentration at which a significant eosinophil shape change was detected” value ([4]; whole blood, FIG. 7)?
Answer: ~0.1 µM

Question: And the “cell shape change on neutrophils” value [5]?
Answer: no effects

Question: What about the half-life in serum [6] of the same molecule?
Answer: around 1 min

— patent publication US20080102476A1, “Analyzing Histamine H4 Receptor-Mediated Effects In Whole Blood” (priority 2003, published 2008)
